{"source": "patent US20150051144A1", "about": "“COMPOUNDS FOR THE TREATMENT OF DYSLIPIDEMIA AND OTHER DISEASES” (Cadila Healthcare Limited, priority 2012, published 2015)", "target": "PCSK9 (Homo sapiens, UniProt Q8NBP7)", "sequence (Q8NBP7 153-692)": "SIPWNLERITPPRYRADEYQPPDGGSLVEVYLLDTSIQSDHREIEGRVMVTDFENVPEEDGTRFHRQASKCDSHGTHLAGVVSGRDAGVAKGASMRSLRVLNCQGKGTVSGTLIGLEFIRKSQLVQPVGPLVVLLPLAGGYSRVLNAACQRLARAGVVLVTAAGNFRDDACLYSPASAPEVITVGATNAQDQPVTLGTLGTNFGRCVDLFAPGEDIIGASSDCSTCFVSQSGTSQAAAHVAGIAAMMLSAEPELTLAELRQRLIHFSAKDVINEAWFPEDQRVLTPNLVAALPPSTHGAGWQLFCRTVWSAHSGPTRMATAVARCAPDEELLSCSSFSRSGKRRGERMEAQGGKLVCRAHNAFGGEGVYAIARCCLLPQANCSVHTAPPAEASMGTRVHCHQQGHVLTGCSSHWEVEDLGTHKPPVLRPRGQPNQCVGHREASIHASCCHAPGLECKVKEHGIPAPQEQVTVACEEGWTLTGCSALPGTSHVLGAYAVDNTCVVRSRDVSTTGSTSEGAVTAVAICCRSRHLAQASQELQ", "sequence (Q8NBP7 31-152 partner limits assumed)": "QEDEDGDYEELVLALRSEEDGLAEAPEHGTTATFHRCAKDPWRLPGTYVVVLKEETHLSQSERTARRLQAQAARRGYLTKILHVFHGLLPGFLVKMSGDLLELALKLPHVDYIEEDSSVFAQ", "test": "PCSK9-LDLR in vitro Binding Assay (solid phase, ELISA readout)", "settings": "for inhibition at 10 µM: test compound concentration 10 μM; for inhibition at 100 µM: test compound concentration 100 μM", "protocol": "The PCSK9-LDLR in vitro Binding Assay is a quantitative solid phase binding assay between PCSK9 and recombinant LDLR. Plates were pre-coated with a recombinant LDLR-AB domain, which binds PCSK9. Test compound at different concentration was added to the PCSK9 and added to LDLR immobilized on the wells. The amount of bound PCSK9 is measured by binding it with biotinylated anti-His-tag monoclonal antibody, followed by binding with horseradish peroxidase conjugated streptavidin substrate. The color was quantified by ELISA reader at […] which reflects the relative amount of PCSK9 that binds to LDLR in presence and absence of the inhibitor.", "data": [{"smiles": "Cc1cc(C(Cc2ccccc2)=NOCc2ccc(C(F)(F)F)cc2)ccc1OCC(=O)N1CCOCC1", "note": "[Example 1, 2-(2-Methyl-4-(2-phenyl-1-(((4-(trifluoromethyl)benzyl)oxy)imino)ethyl)phenoxy)-1-morpholinoethanone]", "values": [{"measurement": "inhibition at 10 µM", "result": 50, "unit": "%"}, {"measurement": "inhibition at 100 µM", "result": 51, "unit": "%"}]}, {"smiles": "Cc1cc(C(Cc2ccccc2)=NOCc2ccc(C(F)(F)F)cc2)ccc1OCC(=O)NCC(=O)N1CCOCC1", "note": "[Example 3, 2-(2-Methyl-4-(2-phenyl-1-(((4-(trifluoromethyl)benzyl)oxy)imino)ethyl)phenoxy)-N-(2-morpholino-2-oxoethyl)acetamide]", "values": [{"measurement": "inhibition at 10 µM", "result": 32, "unit": "%"}, {"measurement": "inhibition at 100 µM", "result": 38, "unit": "%"}]}, {"smiles": "O=C(COc1ccc(C(Cc2ccccc2)=NOCc2ccc(C(F)(F)F)cc2)cc1)N1CCOCC1", "note": "[Example 4, 1-Morpholino-2-(4-(2-phenyl-1-(((4-(trifluoromethyl)benzyl)oxy)imino)ethyl)phenoxy)ethanone]", "values": [{"measurement": "inhibition at 10 µM", "result": 31, "unit": "%"}, {"measurement": "inhibition at 100 µM", "result": 62, "unit": "%"}]}, {"smiles": "CN1CCN(C(=O)COc2ccc(C(Cc3ccccc3)=NOCc3ccc(C(F)(F)F)cc3)cc2)CC1", "note": "[Example 6, 1-(4-Methylpiperazin-1-yl)-2-(4-(2-phenyl-1-(((4-(trifluoromethyl)benzyl)oxy)imino)ethyl)phenoxy)ethanone]", "values": [{"measurement": "inhibition at 10 µM", "result": 49, "unit": "%"}]}, {"smiles": "CC(C)(C)OC(=O)N1CCC(ONC(=O)COc2ccc(C(Cc3ccccc3)=NOCc3ccc(C(F)(F)F)cc3)cc2)CC1", "note": "[Example 8, tert-Butyl 4-((2-(4-(2-phenyl-1-(((4-(trifluoromethyl)benzyl)oxy)imino)ethyl)phenoxy)acetamido)oxy)piperidine-1-carboxylate]", "values": [{"measurement": "inhibition at 10 µM", "result": 50, "unit": "%"}, {"measurement": "inhibition at 100 µM", "result": 52, "unit": "%"}]}, {"smiles": "O=C(COc1ccc(C(Cc2ccccc2)=NOCc2ccc(C(F)(F)F)cc2)cc1)NN1CCOCC1", "note": "[Example 9, N-Morpholino-2-(4-(2-phenyl-1-(((4-(trifluoromethyl)benzyl)oxy)imino)ethyl)phenoxy)acetamide]", "values": [{"measurement": "inhibition at 10 µM", "result": 53, "unit": "%"}, {"measurement": "inhibition at 100 µM", "result": 33, "unit": "%"}]}, {"smiles": "Cc1cc(C(Cc2ccsc2)=NOCc2ccc(C(F)(F)F)cc2)ccc1OCC(=O)N1CCOCC1", "note": "[Example 10, 2-(2-Methyl-4-(2-(thiophen-3-yl)-1-(((4-(trifluoromethyl)benzyl)oxy)imino)ethyl)phenoxy)-1-morpholinoethanone]", "values": [{"measurement": "inhibition at 10 µM", "result": 21, "unit": "%"}, {"measurement": "inhibition at 100 µM", "result": 53, "unit": "%"}]}, {"smiles": "CC(=NOCc1ccc(C(F)(F)F)cc1)c1ccc(OCC(=O)N2CCOCC2)cc1", "note": "[Example 11, 1-Morpholino-2-(4-(1-(((4-(trifluoromethyl)benzyl)oxy)imino)ethyl)phenoxy)ethanone]", "values": [{"measurement": "inhibition at 10 µM", "result": 26, "unit": "%"}, {"measurement": "inhibition at 100 µM", "result": 57, "unit": "%"}]}, {"smiles": "CCC(=NOCc1ccc(C(F)(F)F)cc1)c1ccc(OCC(=O)N2CCOCC2)cc1", "note": "[Example 13, 1-Morpholino-2-(4-(1-(((4-(trifluoromethyl)benzyl)oxy)imino)propyl)phenoxy)ethanone]", "values": [{"measurement": "inhibition at 10 µM", "result": 52, "unit": "%"}, {"measurement": "inhibition at 100 µM", "result": 54, "unit": "%"}]}, {"smiles": "CCC(=NOCc1ccc(C(F)(F)F)cc1)c1ccc(OCC(=O)N2CCCCC2)cc1", "note": "[Example 15, 1-(Piperidin-1-yl)-2-(4-(1-(((4-(trifluoromethyl)benzyl)oxy)imino)propyl)phenoxy)ethanone]", "values": [{"measurement": "inhibition at 10 µM", "result": 32, "unit": "%"}, {"measurement": "inhibition at 100 µM", "result": 64, "unit": "%"}]}, {"smiles": "CCC(=NOCc1ccc(C(F)(F)F)cc1)c1ccc(OCC(=O)N(CCO)c2ccccc2)cc1", "note": "[Example 20, N-(2-Hydroxyethyl)-N-phenyl-2-(4-(1-(((4-(trifluoromethyl)benzyl)oxy)imino)propyl)phenoxy)acetamide]", "values": [{"measurement": "inhibition at 10 µM", "result": 20, "unit": "%"}, {"measurement": "inhibition at 100 µM", "result": 54, "unit": "%"}]}, {"smiles": "CCC(=NOCc1ccc(C(F)(F)F)cc1)c1ccc(OCC(=O)Nc2cc(C)nn2C)cc1", "note": "[Example 22, N-(1,3-Dimethyl-1H-pyrazol-5-yl)-2-(4-(1-(((4-(trifluoromethyl)benzyl)oxy)imino)propyl)phenoxy)acetamide]", "values": [{"measurement": "inhibition at 10 µM", "result": 35, "unit": "%"}, {"measurement": "inhibition at 100 µM", "result": 60, "unit": "%"}]}, {"smiles": "O=C(COc1ccc(C(Cc2ccccc2)=NOCc2ccccc2)cc1)N1CCOCC1", "note": "[Example 25, 2-(4-(1-((Benzyloxy)imino)-2-phenylethyl)phenoxy)-1-morpholinoethanone]", "values": [{"measurement": "inhibition at 10 µM", "result": 27, "unit": "%"}, {"measurement": "inhibition at 100 µM", "result": 40, "unit": "%"}]}, {"smiles": "Cc1ccc(CON=C(Cc2ccccc2)c2ccc(OCC(=O)N3CCOCC3)c(C)c2)cc1", "note": "[Example 26, 2-(2-Methyl-4-(1-(((4-methylbenzyl)oxy)imino)-2-phenylethyl)phenoxy)-1-morpholinoethanone]", "values": [{"measurement": "inhibition at 10 µM", "result": 32, "unit": "%"}, {"measurement": "inhibition at 100 µM", "result": 44, "unit": "%"}]}, {"smiles": "Cc1cc(C(Cc2ccccc2)=NOCc2ccc(OC(F)(F)F)cc2)ccc1OCC(=O)N1CCOCC1", "note": "[Example 34, 2-(2-methyl-4-(2-phenyl-1-(((4-(trifluoromethoxy)benzyl)oxy)imino)ethyl)phenoxy)-1-morpholinoethanone]", "values": [{"measurement": "inhibition at 10 µM", "result": 25, "unit": "%"}, {"measurement": "inhibition at 100 µM", "result": 46, "unit": "%"}]}, {"smiles": "O=C(COc1ccc(C(Cc2ccccc2)=NOCc2ccc(OC(F)(F)F)cc2)cc1)N1CCOCC1", "note": "[Example 35, 1-morpholino-2-(4-(2-phenyl-1-(((4-(trifluoromethoxy)benzyl)oxy)imino)ethyl)phenoxy)ethanone]", "values": [{"measurement": "inhibition at 10 µM", "result": 26, "unit": "%"}, {"measurement": "inhibition at 100 µM", "result": 42, "unit": "%"}]}, {"smiles": "COc1ccc(CON=C(Cc2ccccc2)c2ccc(OCC(=O)N3CCOCC3)c(C)c2)cc1", "note": "[Example 36, 2-(4-(1-(((4-methoxybenzyl)oxy)imino)-2-phenylethyl)-2-methylphenoxy)-1-morpholinoethanone]", "values": [{"measurement": "inhibition at 10 µM", "result": 22, "unit": "%"}, {"measurement": "inhibition at 100 µM", "result": 40, "unit": "%"}]}, {"smiles": "COc1ccc(CON=C(Cc2ccccc2)c2ccc(OCC(=O)N3CCCCC3)c(C)c2)cc1", "note": "[Example 40, 2-(4-(1-(((4-methoxybenzyl)oxy)imino)-2-phenylethyl)-2-methylphenoxy)-1-(piperidin-1-yl)ethanone]", "values": [{"measurement": "inhibition at 10 µM", "result": 24, "unit": "%"}, {"measurement": "inhibition at 100 µM", "result": 50, "unit": "%"}]}, {"smiles": "CCC(=NOCCn1ccc2ccccc21)c1ccc(OCC(=O)N2CCN(C)CC2)cc1", "note": "[Example 46, 2-(4-(1-((2-(1H-indol-1-yl)ethoxy)imino)propyl)phenoxy)-1-(4-methylpiperazin-1-yl)ethanone]", "values": [{"measurement": "inhibition at 10 µM", "result": 27, "unit": "%"}, {"measurement": "inhibition at 100 µM", "result": 59, "unit": "%"}]}, {"smiles": "CCC(=NOCc1nc(-c2ccccc2)oc1C)c1ccc(OCC(=O)N2CCN(C)CC2)cc1", "note": "[Example 50, 2-(4-(1-(((5-methyl-2-phenyloxazol-4-yl)methoxy)imino)propyl)phenoxy)-1-(4-methylpiperazin-1-yl)ethanone]", "values": [{"measurement": "inhibition at 10 µM", "result": 22, "unit": "%"}, {"measurement": "inhibition at 100 µM", "result": 42, "unit": "%"}]}, {"smiles": "O=C(COc1ccc2c(c1)CCCC2=NOCc1ccc(C(F)(F)F)cc1)N1CCCCC1", "note": "[Example 54, 1-(piperidin-1-yl)-2-((5-(((4-(trifluoromethyl)benzyl)oxy)imino)-5,6,7,8-tetrahydronaphthalen-2-yl)oxy)ethanone]", "values": [{"measurement": "inhibition at 10 µM", "result": 40, "unit": "%"}, {"measurement": "inhibition at 100 µM", "result": 62, "unit": "%"}]}, {"smiles": "CN1CCN(C(=O)COc2ccc3c(c2)CCCC3=NOCc2ccc(C(F)(F)F)cc2)CC1", "note": "[Example 56, 1-(4-methylpiperazin-1-yl)-2-((5-(((4-(trifluoromethyl)benzyl)oxy)imino)-5,6,7,8-tetrahydronaphthalen-2-yl)oxy)ethanone]", "values": [{"measurement": "inhibition at 10 µM", "result": 63, "unit": "%"}, {"measurement": "inhibition at 100 µM", "result": 66, "unit": "%"}]}, {"smiles": "O=C(COc1ccc2c(c1)CCCC2=NOCc1ccc(C(F)(F)F)cc1)NN1CCOCC1", "note": "[Example 57, N-morpholino-2-((5-(((4-(trifluoromethyl)benzyl)oxy)imino)-5,6,7,8-tetrahydronaphthalen-2-yl)oxy)acetamide]", "values": [{"measurement": "inhibition at 10 µM", "result": 50, "unit": "%"}, {"measurement": "inhibition at 100 µM", "result": 59, "unit": "%"}]}, {"smiles": "O=C(COc1ccc2c(c1)CCCC2=NOCc1ccc(C(F)(F)F)cc1)NN1CCCCC1", "note": "[Example 58, N-(piperidin-1-yl)-2-((5-(((4-(trifluoromethyl)benzyl)oxy)imino)-5,6,7,8-tetrahydronaphthalen-2-yl)oxy)acetamide]", "values": [{"measurement": "inhibition at 10 µM", "result": 50, "unit": "%"}, {"measurement": "inhibition at 100 µM", "result": 53, "unit": "%"}]}, {"smiles": "O=C(COc1ccc2c(c1)CCCC2=NOCc1ccc(C(F)(F)F)cc1)Nc1nc2cc(Cl)ccc2o1", "note": "[Example 59, N-(5-chlorobenzo[d]oxazol-2-yl)-2-((5-(((4-(trifluoromethyl)benzyl)oxy)imino)-5,6,7,8-tetrahydronaphthalen-2-yl)oxy)acetamide]", "values": [{"measurement": "inhibition at 10 µM", "result": 49, "unit": "%"}, {"measurement": "inhibition at 100 µM", "result": 79, "unit": "%"}]}, {"smiles": "Cc1ccnc(NC(=O)COc2ccc3c(c2)CCCC3=NOCc2ccc(C(F)(F)F)cc2)n1", "note": "[Example 60, N-(4-methylpyrimidin-2-yl)-2-((5-(((4-(trifluoromethyl)benzyl)oxy)imino)-5,6,7,8-tetrahydronaphthalen-2-yl)oxy)acetamide]", "values": [{"measurement": "inhibition at 10 µM", "result": 61, "unit": "%"}, {"measurement": "inhibition at 100 µM", "result": 91, "unit": "%"}]}, {"smiles": "CC(C)(C)OC(=O)N1CCC(ONC(=O)COc2ccc3c(c2)CCCC3=NOCc2ccc(C(F)(F)F)cc2)CC1", "note": "[Example 62, tert-butyl 4-((2-((5-(((4-(trifluoromethyl)benzyl)oxy)imino)-5,6,7,8-tetrahydronaphthalen-2-yl)oxy)acetamido)oxy)piperidine-1-carboxylate]", "values": [{"measurement": "inhibition at 10 µM", "result": 57, "unit": "%"}, {"measurement": "inhibition at 100 µM", "result": 73, "unit": "%"}]}, {"smiles": "[C-]#[N+]c1ccccc1NC(=O)COc1ccc2c(c1)CCCC2=NOCc1ccc(C(F)(F)F)cc1", "note": "[Example 63, N-(2-isocyanophenyl)-2-((5-(((4-(trifluoromethyl)benzyl)oxy)imino)-5,6,7,8-tetrahydronaphthalen-2-yl)oxy)acetamide]", "values": [{"measurement": "inhibition at 10 µM", "result": 48, "unit": "%"}, {"measurement": "inhibition at 100 µM", "result": 58, "unit": "%"}]}]}
